Experimental findings from paper PMC7938888, “Antidepressant drugs act by directly binding to TRKB neurotrophin receptors” (Cell, 2021) are described below.

For experiment [1], the system named is TRKB:PLC-γ1 interaction. Put plainly: TRKB:PLC-γ1 interaction ELISA in MG87 cells expressing TRKB. Type of experiment: cell-based, mouse. The following applies: cholesterol 20 μM/15 min. As for the experimental part: The cell line NIH 3T3 (mouse fibroblasts) stably transfected to express TRKB or TRKA (MG87.TRKB or MG87.TRKA, respectively) were used for in vitro assays ([Antila et al., 2014]), N2A and HEK293T cells were used to overexpress GFP-tagged TRKB for binding assays. The cells were maintained at 5% CO2, 37°C in Dulbecco’s Modified Eagle’s Medium (DMEM, containing 10% fetal calf serum, 1% penicillin/streptomycin, 1% L-glutamine, and, in the case of MG87.TRKB cells, with […] of G418). The cell lines used in the present study were not authenticated or genotyped for sex.
The TRKB:pY (phosphorylated TRKB), TRKB:PLC-γ1, PLC-γ1:pTRKB.Y816 interactions and were determined by ELISA, based on the general method described in literature ([Antila et al., 2014]; [Fred et al., 2019]), with minor adjustments. Briefly, white 96-well plates (OptiPlate 96F-HB, Perkin Elmer) were coated with capturing anti-TRKB or PLC-γ1 antibody (1:1000) in carbonate buffer (pH = 9.8) overnight (ON) at 4°C. Following a blocking step with 2%BSA in TBS-T (2 h, RT), samples were incubated ON at 4°C. […] Finally, the chemiluminescent signal generated by the reaction with ECL was analyzed in a plate reader (Varioskan Flash, Thermo Scientific).
In general terms: An ELISA detects its analyte on a solid surface through an enzyme-linked reagent.

For experiment [2], the system named is TRKB.T1ΔEC. Put plainly: Cell-free ligand binding assay, TRKB deletion construct. Conditions: construct with TMD and short juxtamembrane sequences only.
Experiment [3] concerns mice. As to the kind of experiment: BrdU incorporation (hippocampal neurogenesis). It is filed as in vivo, mouse. The following applies: FLX 15 mg/kg/day 21 days p.o. As for the experimental part: Animals: both males and females were used in this experiment. The Bromodeoxyuridine (BrdU) (Sigma) was administered intraperitoneally at the dose of 75 mg/kg four times every 2 hr to reach 300 mg/kg total for each animal. […] On day 21 of the drug treatment, the animals were euthanized by CO2, brains were quickly removed, followed by hippocampus dissection on ice, instantly frozen on dry ice and stored at −80°C until further use.
A semiquantitative dot-blot method was performed as previously described with minor modifications ([Wu and Castrén, 2009]). To isolate the DNA of the hippocampus samples, DNeasy® Blood and Tissue Kit (QIAGEN, Germany) was used. The extraction procedure was as per the manufacturer’s instruction. The DNA purity was assessed by the spectrophotometer NanoDrop 2000C (ThermoFisher Scientific, USA). DNA was incubated with 1 volume of 4N NaOH solution for 30 min at room temperature to render it as single stranded and immediately kept on ice to prevent reannealing. The DNA solution was neutralized by an equal volume of 1M Tris-HCl (pH 6.8). The single-stranded neutralized DNA (1ug) was dot-blotted onto a nylon transfer membrane (Schlleicher and Schuell, Keene, NH) with a dot-blot apparatus (Minifold, Schlleicher and Schuell) under vacuum and the DNA was fixed by ultraviolet cross-linker (1200 μJ × 100, Stratagene, La Jolla, CA). […]

The subject of experiment [4] is mice. As to the kind of experiment: Object location memory (OLM) test. Type of experiment: in vivo, mouse. As for the experimental part: Object-location memory (OLM): this test was performed in a square arena (28cm side) with opaque walls containing cues (black stripes or spots). The adult male and female mice (18-22 weeks old) were placed for 3 consecutive days (15min per session) in the arena with two identical objects (table tennis balls glued to caps of 50ml Falcon tubes) in the same position throughout the sessions (pretest).

Experiment [5] has as its system Sprague-Dawley rats. As to the kind of experiment: BDNF-induced LTP in dentate gyrus of anesthetized rats. It is filed as in vivo, rat. Conditions: anesthetized rats, 2 μl of 1 ug/ul over 30 min. As for the experimental part: In vivo electrophysiology. Intrahippocampal BDNF infusion was performed as described previously ([Messaoudi et al., 1998]). The experiments were carried out on 20 adult male Sprague-Dawley rats (15 weeks old, Janvier, France). Rats were housed in the animal facility for 1-week prior to the start of drug administration. […]
For electrophysiological experiments, rats were anesthetized with an intraperitoneal injection of urethane (U2500, Sigma-Aldrich) 1.5 g/kg body weight, positioned in a stereotaxic frame. The body temperature was constantly monitored and maintained at 37°C with an electric heating pad. Holes were drilled in the skull and a concentric bipolar stimulating electrode (Tip separation 500micrometers; SNEX 100; Rhodes Medical Instruments, Woodland Hills, CA) was positioned in the angular bundle for stimulation of the medial perforant path (7.9 mm posterior to bregma, 4.2 mm lateral to the midline, and 2.5 mm below the dura. […]
Responses were allowed to stabilize for 1 hour at a stimulation intensity that produced a population spike 30% of maximum. […] Evoked responses were recorded for 120 min post infusion. Recorded field potentials were amplified, filtered (0.1 Hz to 10 kHz), and digitized (25 kHz). Electrophysiological data was analyzed using Datawave Technologies Software company. […]

On to `CC(C)CCC[C@@H](C)[C@H]1CC[C@H]2[C@@H]3CC=C4C[C@@H](O)CC[C@]4(C)[C@H]3CC[C@]12C` [CHOL, cholesterol], for which the “interaction of TRKB with PLC-γ1” value in experiment [1] is “promoted the interaction of TRKB”.

As for `CNCCC(Oc1ccc(C(F)(F)F)cc1)c1ccccc1` (stereo not drawn) [FLX, fluoxetine], the “binding to TRKB.T1ΔEC” value in experiment [2] is “robust binding”. The “survival of newborn hippocampal neurons” value is reported as “no increase was observed” in experiment [3] (TRKB.Y433F mice) and “significantly increased survival of newborn hippocampal neurons” in experiment [3] (wild-type mice). In addition, the “response in OLM test” value was “lack of response” in experiment [4] (BDNF haploinsufficient mice), “lack of response” in experiment [4] (animals co-treated with pravastatin) and “responded to FLX treatment normally” in experiment [4] (serotonin transporter knockout (5HTT.ko) mice). Further, the “long-term memory in OLM test” value in experiment [4] (TRKB.wt mice, FLX 15 mg/kg/day for 7 days) is reported as “facilitated long-term memory”.

B1: BDNF: brain-derived neurotrophic factor, TRKB ligand (protein, UniProt P23560 19-247, looked up)
Neurotrophic factor BDNF …: APMKEANIRGQGGLAYPGVRTHGTLESVNGPKAGSRGLTSLADTFEHVIEELLDEDQKVRPNEENNKDADLYTSRVMLSSQVPLEPPLLFLLEEYKNYLDAANMSMRVRRHSDPARRGELSVCDSISEWVTAADKKTAVDMSGGTVTVLEKVPVSKGQLKQYFYETKCNPMGYTKEGCRGIDKRHWNSQCRTTQSYVRALTMDSKKRIGWRFIRIDTSCVCTLTIKRGR
Turning to B1, the “synaptic strength after infusion into the dentate gyrus” value in experiment [5] is given as “significantly increased synaptic strength”.
